Assay results published in US11603349B2, “Anti-fibrotic compounds” (Certa Therapeutics Pty Ltd, priority 2017, dated 2023).

Tests used:
[1] = MTS tetrazolium reduction cell viability assay; conditions: rat, rat mesangial cells (1097/IRMC cells), TGF-β1 stimulated, CC50 (μM), vs 1% DMSO vehicle
[2] = system: TGF-β induced [14C]-proline incorporation in rat mesangial cells; assay: [14C]-proline incorporation assay (collagen biosynthesis); type: cell-based; conditions: Rattus norvegicus, Mesangial cell, 44 h
[3] = inhibition of TGF-β1 (1 ng/ml) induced [14C]-proline incorporation, IRMC cells

Row | Compound | CC50 at 48 h [1] [µM] | IC50 [2, 3] [µM] | IC50 [2] [µM]
1 | C#CCOc1ccc(/C=C/C(=O)Nc2ccccc2C(=O)NCC2CCOC2)cc1OC (stereo not drawn) [Example 39, (E)-2-(3-(3-methoxy-4-(prop-2-yn-1-yloxy)phenyl)acrylamido)-N-((tetrahydrofuran-3-yl)methyl)benzamide] | 85.8 | 48.3 | 
2 | C#CCOc1ccc(/C=C/C(=O)Nc2ccccc2C(=O)NC2COC2)cc1OC [Example 38, (E)-2-(3-(3-methoxy-4-(prop-2-yn-1-yloxy)phenyl)acrylamido)-N-(oxetan-3-yl)benzamide] | 236 | 38.2 | 
3 | COc1cc(/C=C/C(=O)N2CCOc3ccccc32)ccc1OC1CCN(C)C1 (stereo not drawn) [Example 118, (E)-1-(2H-benzo[b][1,4]oxazin-4(3H)-yl)-3-(3-methoxy-4-((1-methylpyrrolidin-3-yl)oxy)phenyl)prop-2-en-1-one] | 25.5 | 14.3 | 
4 | C#CCOc1c(/C=C/C(=O)Nc2ccccc2C(=O)O)ccc(OC)c1OC [Example 95, (E)-2-(3-(3,4-dimethoxy-2-(prop-2-yn-1-yloxy)phenyl)acrylamido)benzoic Acid] | 111 | 17.6 | 
5 | COc1cc(C2CC2C(=O)Nc2ccc(F)cc2)ccc1OC1CCN(C)C1 (stereo not drawn) [Example 136, N-(4-fluorophenyl)-2-(3-methoxy-4-((1-methylpyrrolidin-3-yl)oxy)phenyl)cyclopropane-1-carboxamide] | 16.3 | 4.13 | 
6 | C#CCOc1ccc(/C=C/C(=O)Nc2ccc(C#N)cc2)cc1CC [Example 124, (E)-N-(4-cyanophenyl)-3-(3-ethyl-4-(prop-2-yn-1-yloxy)phenyl)acrylamide] | > 300 | 34.8 | 
7 | COc1cc(C2CC2C(=O)Nc2ccccc2Cl)ccc1OCC1COC1 (stereo not drawn) [Example 155, N-(2-chlorophenyl)-2-(3-methoxy-4-(oxetan-3-ylmethoxy)phenyl)cyclopropane-1-carboxamide] | 196 | 18.7 | 
8 | C#CCOc1ccc(/C=C/C(=O)Nc2ccccc2C(=O)Nc2cnn(C)c2)cc1OC [Example 47, (E)-2-(3-(3-methoxy-4-(prop-2-yn-1-yloxy)phenyl)acrylamido)-N-(1-methyl-1H-pyrazol-4-yl)benzamide] | > 300 | 29.1 | 
9 | COc1cc(C2CC2C(=O)Nc2ccccc2F)ccc1OC1CCN(C)C1 (stereo not drawn) [Example 138, N-(2-fluorophenyl)-2-(3-methoxy-4-((1-methylpyrrolidin-3-yl)oxy)phenyl)cyclopropane carboxamide] | 50.9 | 11 | 
10 | COc1ccc(C2CC2C(=O)Nc2ccc(Cl)cc2)cc1OCc1cnn(C)c1 (stereo not drawn) [Example 149, N-(4-chlorophenyl)-2-(4-methoxy-3-((1-methyl-1H-pyrazol-4-yl)methoxy)phenyl)cyclopropane-1-carboxamide] | > 54.8 | 8.35 | 
11 | C#CCOc1ccc(C2CC2C(=O)N2CCOc3ccccc32)cc1OC (stereo not drawn) [Example 119, (2H-benzo[b][1,4]oxazin-4(3H)-yl)(2-(3-methoxy-4-(prop-2-yn-1-yloxy)phenyl)cyclopropyl) methanone] | 74.8 | 24.7 | 
12 | COc1cc(/C=C/C(=O)Nc2ccc(Cl)cc2)ccc1OCC1COC1 [Example 153, (E)-N-(4-chlorophenyl)-3-(3-methoxy-4-(oxetan-3-ylmethoxy)phenyl)acrylamide] | > 300 | 35.4 | 
13 | C#CCOc1ccc(/C=C/C(=O)Nc2ccc(F)cc2)cc1CC [Example 125, (E)-3-(3-ethyl-4-(prop-2-yn-1-yloxy)phenyl)-N-(4-fluorophenyl)acrylamide] | > 300 | 17.6 | 
14 | COc1cc(/C=C/C(=O)Nc2ccccc2C(=O)O)ccc1OCc1ccncc1 [Example 58, (E)-2-(3-(3-methoxy-4-(pyridin-4-ylmethoxy)phenyl)acrylamido)benzoic acid] | 266 | 39.2 | 
15 | C#CCOc1ccc(/C=C/C(=O)Nc2ccccc2-n2cnc(C)n2)cc1OC [Example 23, (E)-3-(3-methoxy-4-(prop-2-yn-1-yloxy)phenyl)-N-(2-(3-methyl-1H-1,2,4-triazol-1-yl)phenyl)acryl-amide] | 104 | 26.3 | 
16 | COc1cc(/C=C/C(=O)Nc2ccccc2C(=O)O)ccc1CN1CCN(C)CC1 [Example 68, (E)-2-(3-(3-methoxy-4-((4-methylpiperazin-1-yl)methyl)phenyl)acrylamido)benzoic acid] | > 300 | 44.9 | 
17 | C#CCOc1ccc(/C=C/C(=O)Nc2ccccc2-c2cn[nH]c2)cc1OC [Example 24, (E)-N-(2-(1H-pyrazol-4-yl)phenyl)-3-(3-methoxy-4-(prop-2-yn-1-yloxy)phenyl)acrylamide] | 41.4 | 13 | 
18 | COc1cc(/C=C/C(=O)Nc2ccccc2C(=O)O)ccc1OCc1cnn(C)c1 [Example 53, (E)-2-(3-(3-methoxy-4-((1-methyl-1H-pyrazol-4-yl)methoxy)phenyl)acrylamido)benzoic acid] | 226 | 15 | 

Row | Compound | CC50 at 48 h [1] [µM] | IC50 [2, 3] [µM] | IC50 [2] [µM]
19 | O=C(/C=C/c1ccc2c(c1)NC(=O)CO2)Nc1ccccc1C(=O)O [Example 111, (E)-2-(3-(3-oxo-3,4-dihydro-2H-benzo[b][1,4]oxazin-6-yl)acrylamido)benzoic acid] | > 300 | 30 | 
20 | C#CCOc1ccc(/C=C/C(=O)Nc2ccccc2C(=O)O)c(OC2CCNC2)c1OC (stereo not drawn) [Example 80, 2-[[(E)-3-(3-methoxy-4-prop-2-ynoxy-2-pyrrolidin-3-yloxyphenyl)prop-2-enoyl]amino]benzoic acid] | > 100 | 24.5 | 
21 | C#CCOc1ccc(/C=C/C(=O)Nc2ccccc2C#N)c(OC2CCN(C)C2)c1OC (stereo not drawn) [Example 81, (E)-N-(2-cyanophenyl)-3-[3-methoxy-2-(1-methylpyrrolidin-3-yl)oxy-4-prop-2-ynoxy-phenyl]prop-2-enamide] | 24.9 | 7.15 | 
22 | C#CCOc1ccc(/C=C/C(=O)Nc2ccccc2C(=O)NCCc2ccccn2)cc1OC [Example 42, (E)-2-(3-(3-methoxy-4-(prop-2-yn-1-yloxy)phenyl)acrylamido)-N-(2-(pyridin-2-yl)ethyl)benzamide] | 52 | 17 | 
23 | C#CCOc1ccc(/C=C/C(=O)Nc2ccccc2)cc1OC [Example 8, (E)-3-(3-methoxy-4-(prop-2-yn-1-yloxy)phenyl)-N-phenylacrylamide] | 109 |  | 5.33
24 | COc1cc(C2CC2C(=O)Nc2cccc(Cl)c2)ccc1OCC1COC1 (stereo not drawn) [Example 148, N-(3-chlorophenyl)-2-(3-methoxy-4-(oxetan-3-ylmethoxy)phenyl)cyclopropane-1-carboxamide] | 77.6 | 8.47 | 
25 | C#CCOc1ccc(/C=C/C(=O)Nc2ccccc2C#N)c(OCCN2CCOCC2)c1OC [Example 85, (E)-N-(2-cyanophenyl)-3-[3-methoxy-2-(2-morpholinoethoxy)-4-prop-2-ynoxy-phenyl]prop-2-enamide] | 109 | 8.92 | 
26 | C#CCOc1ccc(/C=C/C(=O)N2CCC(C(=O)OC)c3ccccc32)cc1OC (stereo not drawn) [Example 9, methyl (E)-1-(3-(3-methoxy-4-(prop-2-yn-1-yloxy)phenyl)acryloyl)-1,2,3,4-tetrahydroquinoline-4-carboxylate] | 25.5 | 1.94 | 
27 | C#CCOc1ccc(/C=C/C(=O)N2CCCc3ccccc32)cc1OC [Example 10, (E)-1-(3,4-dihydroquinolin-1(2H)-yl)-3-(3-methoxy-4-(prop-2-yn-1-yloxy)phenyl)prop-2-en-1-one] | 66.4 | 6.04 | 
28 | C#CCOc1ccc(/C=C/C(=O)Nc2ccccc2-c2ncon2)cc1OC [Example 17, (E)-N-(2-(1,2,4-oxadiazol-3-yl)phenyl)-3-(3-methoxy-4-(prop-2-yn-1-yloxy)phenyl)acrylamide] | > 300 | 31.6 | 
29 | COc1ccc(/C=C/C(=O)Nc2ccccc2C(=O)O)cc1N1CCOCC1 [Example 101, (E)-2-(3-(4-methoxy-3-morpholinophenyl)acrylamido)benzoic Acid] | 119 | 17 | 
30 | C#CCOCc1ccc(/C=C/C(=O)Nc2ccccc2C(=O)O)cc1OC [Example 72, (E)-2-(3-(3-methoxy-4-((prop-2-yn-1-yloxy)methyl)phenyl)acrylamido)benzoic acid] | > 300 | 15 | 
31 | C#CCOc1ccc(/C=C/C(=O)Nc2ccccc2C#N)c(OC2CCN(C)CC2)c1OC [Example 89, (E)-N-(2-cyanophenyl)-3-[3-methoxy-2-[(1-methyl-4-piperidyl)oxy]-4-prop-2-ynoxy-phenyl]prop-2-enamide] | 19.8 | 4.66 | 
32 | COc1cccc(/C=C/C(=O)Nc2ccccc2C#N)c1OCCN(C)C [Example 92, (E)-N-(2-cyanophenyl)-3-(2-(2-(dimethylamino)ethoxy)-3-methoxyphenyl)acrylamide] | 109 | 49.2 | 
33 | COc1ccc(/C=C/C(=O)N2CCOc3ccccc32)c(OCCN(C)C)c1OC [Example 115, (E)-1-(2H-benzo[b][1,4]oxazin-4(3H)-yl)-3-(2-(2-(dimethylamino)ethoxy)-3,4-dimethoxyphenyl)-prop-2-en-1-one] | 45.4 | 7.03 | 
34 | COc1ccc(/C=C/C(=O)Nc2cccnc2)cc1OCc1cnn(C)c1 [Example 150, (E)-3-(4-methoxy-3-((1-methyl-1H-pyrazol-4-yl)methoxy)phenyl)-N-(pyridin-3-yl)acrylamide] | > 31.6 | 4.08 | 
35 | C#CCNCc1cc(/C=C/C(=O)Nc2ccccc2C(=O)O)ccc1OC [Example 74, (E)-2-(3-(4-methoxy-3-((prop-2-yn-1-ylamino)methyl)phenyl)acrylamido)benzoic acid] | 319 | 14.7 | 
36 | C#CCOc1ccc(/C=C/C(=O)Nc2ccccc2-c2nnco2)cc1OC [Example 21, (E)-N-(2-(1,3,4-oxadiazol-2-yl)phenyl)-3-(3-methoxy-4-(prop-2-yn-1-yloxy)phenyl)acrylamide] | > 300 | 25 | 
